Measurements as given in ChEMBL document CHEMBL1201862, “PubChem BioAssay data set” (2004).
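All cell lines were grown in 96-well plates and treated with compound for 48 hours. Here, GI50 denotes the concentration required for 50% inhibition of growth.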 Calls of active or inactive are those of the source. No stated cut-off is given here; in the data, active = GI50 up to about 1.1 µM and inactive = higher.

Tests used:
Assay in all cases: inhibition of tumour cell growth, NCI panel, 48 h
EKVX = test system: EKVX
MCF7 = test system: MCF7
786-0 = test system: 786-0
RXF 393 = test system: RXF 393
Hs-578T = test system: Hs-578T
SF-295 = test system: SF-295
SW-620 = test system: SW-620
OVCAR-3 = test system: OVCAR-3
M14 = test system: M14
NCI/ADR-RES = test system: NCI/ADR-RES
SNB-19 = test system: SNB-19
SK-MEL-2 = test system: SK-MEL-2
HOP-62 = test system: HOP-62
PC-3 = test system: PC-3
SK-OV-3 = test system: SK-OV-3
DU-145 = test system: DU-145
HCT-116 = test system: HCT-116
SR = test system: SR
MOLT-4 = test system: MOLT-4
HOP-92 = test system: HOP-92
ACHN = test system: ACHN
OVCAR-4 = test system: OVCAR-4
NCI-H23 = test system: NCI-H23
KM12 = test system: KM12
HCT-15 = test system: HCT-15
MDA-N = test system: MDA-N
SNB-75 = test system: SNB-75
MDA-MB-231 = test system: MDA-MB-231
OVCAR-8 = test system: OVCAR-8
BT-549 = test system: BT-549
A498 = test system: A498
UACC-257 = test system: UACC-257
OVCAR-5 = test system: OVCAR-5
NCI-H226 = test system: NCI-H226
MDA-MB-435 = test system: MDA-MB-435
RPMI-8226 = test system: RPMI-8226
SK-MEL-5 = test system: SK-MEL-5
T47D = test system: T47D
U-251 = test system: U-251
COLO 205 = test system: COLO 205
LOX IMVI = test system: LOX IMVI
UACC-62 = test system: UACC-62
UO-31 = test system: UO-31
HL-60 = test system: HL-60
NCI-H522 = test system: NCI-H522
HT-29 = test system: HT-29
Malme-3M = test system: Malme-3M
SN12C = test system: SN12C
SF-539 = test system: SF-539
SK-MEL-28 = test system: SK-MEL-28
TK-10 = test system: TK-10
SF-268 = test system: SF-268
CAKI-1 = test system: CAKI-1
IGROV-1 = test system: IGROV-1
K562 = test system: K562
A549 = test system: A549
NCI-H460 = test system: NCI-H460
HCC 2998 = test system: HCC 2998
CCRF-CEM = test system: CCRF-CEM

NS(=O)(=O)c1ccc(/N=N/c2ncccc2O)cc1
GI50 (EKVX): > 100 µM (inactive)
GI50 (MCF7): 57.9 µM (inactive)
GI50 (786-0): 53.1 µM (inactive)
GI50 (RXF 393): > 100 µM (inactive)
GI50 (Hs-578T): > 100 µM (inactive)
GI50 (SF-295): > 100 µM (inactive)
GI50 (SW-620): 57.3 µM (inactive)
GI50 (OVCAR-3): 33.7 µM (inactive)
GI50 (M14): > 100 µM (inactive)
GI50 (NCI/ADR-RES): > 100 µM (inactive)
GI50 (SNB-19): > 100 µM (inactive)
GI50 (SK-MEL-2): > 100 µM (inactive)
GI50 (HOP-62): > 100 µM (inactive)
GI50 (PC-3): > 100 µM (inactive)
GI50 (SK-OV-3): > 100 µM (inactive)
GI50 (DU-145): 38.5 µM (inactive)
GI50 (HCT-116): 39.3 µM (inactive)
GI50 (SR): 23.1 µM (inactive)
GI50 (MOLT-4): 22.6 µM (inactive)
GI50 (HOP-92): > 100 µM (inactive)
GI50 (ACHN): > 100 µM (inactive)
GI50 (OVCAR-4): 57.7 µM (inactive)
GI50 (NCI-H23): 51.4 µM (inactive)
GI50 (KM12): 60.5 µM (inactive)
GI50 (HCT-15): > 100 µM
GI50 (MDA-N): > 100 µM (inactive)
GI50 (SNB-75): > 100 µM (inactive)
GI50 (MDA-MB-231): > 100 µM (inactive)
GI50 (OVCAR-8): 79.6 µM (inactive)
GI50 (BT-549): > 100 µM (inactive)
GI50 (A498): > 100 µM (inactive)
GI50 (UACC-257): > 100 µM (inactive)
GI50 (OVCAR-5): > 100 µM (inactive)
GI50 (NCI-H226): > 100 µM (inactive)
GI50 (MDA-MB-435): > 100 µM (inactive)
GI50 (RPMI-8226): > 100 µM (inactive)
GI50 (SK-MEL-5): > 100 µM (inactive)
GI50 (T47D): > 100 µM (inactive)
GI50 (U-251): > 100 µM (inactive)
GI50 (COLO 205): > 100 µM (inactive)
GI50 (LOX IMVI): 77.4 µM (inactive)
GI50 (UACC-62): > 100 µM (inactive)
GI50 (UO-31): > 100 µM (inactive)
GI50 (HL-60): 41.1 µM (inactive)
GI50 (NCI-H522): 44.9 µM (inactive)
GI50 (HT-29): > 100 µM (inactive)
GI50 (Malme-3M): > 100 µM (inactive)
GI50 (SN12C): 71.8 µM (inactive)
GI50 (SF-539): 55.6 µM (inactive)
GI50 (SK-MEL-28): > 100 µM (inactive)
GI50 (TK-10): > 100 µM (inactive)
GI50 (SF-268): > 100 µM (inactive)
GI50 (CAKI-1): > 100 µM (inactive)
GI50 (IGROV-1): > 100 µM (inactive)
GI50 (K562): 40.2 µM (inactive)
GI50 (A549): > 100 µM (inactive)
GI50 (NCI-H460): 69.3 µM (inactive)

CCOC(=O)CCC(NC(=O)Cc1ccc(Nc2nc3ccccc3nc2-c2cccs2)cc1)C(=O)OCC (configuration not stated)
GI50 (EKVX): 53.7 µM (inactive)
GI50 (MCF7): 41.1 µM (inactive)
GI50 (786-0): 29.6 µM (inactive)
GI50 (RXF 393): 12.9 µM (inactive)
GI50 (Hs-578T): 25.1 µM (inactive)
GI50 (SF-295): 53.2 µM (inactive)
GI50 (SW-620): > 100 µM (inactive)
GI50 (OVCAR-3): 34 µM (inactive)
GI50 (M14): > 100 µM (inactive)
GI50 (HCC 2998): > 100 µM (inactive)
GI50 (NCI/ADR-RES): 61.8 µM (inactive)
GI50 (SNB-19): 24.7 µM (inactive)
GI50 (SK-MEL-2): 54.3 µM (inactive)
GI50 (HOP-62): 31.9 µM (inactive)
GI50 (PC-3): 45.7 µM (inactive)
GI50 (SK-OV-3): 40.8 µM (inactive)
GI50 (DU-145): 44.2 µM (inactive)
GI50 (HCT-116): > 100 µM (inactive)
GI50 (SR): 29.3 µM (inactive)
GI50 (MOLT-4): > 100 µM (inactive)
GI50 (ACHN): > 100 µM (inactive)
GI50 (CCRF-CEM): > 100 µM (inactive)
GI50 (OVCAR-4): 27.4 µM (inactive)
GI50 (NCI-H23): 30.1 µM (inactive)
GI50 (KM12): > 100 µM (inactive)
GI50 (HCT-15): > 100 µM
GI50 (MDA-N): > 100 µM (inactive)
GI50 (SNB-75): 18.1 µM (inactive)
GI50 (MDA-MB-231): > 100 µM (inactive)
GI50 (BT-549): > 100 µM (inactive)
GI50 (A498): 69.7 µM (inactive)
GI50 (UACC-257): 79.3 µM (inactive)
GI50 (OVCAR-5): > 100 µM (inactive)
GI50 (NCI-H226): > 100 µM (inactive)
GI50 (MDA-MB-435): 38.1 µM (inactive)
GI50 (RPMI-8226): > 100 µM (inactive)
GI50 (SK-MEL-5): 37.4 µM (inactive)
GI50 (T47D): 10.9 µM (inactive)
GI50 (U-251): 28.1 µM (inactive)
GI50 (COLO 205): > 100 µM (inactive)
GI50 (UACC-62): 64.6 µM (inactive)
GI50 (UO-31): > 100 µM (inactive)
GI50 (HL-60): > 100 µM (inactive)
GI50 (NCI-H522): 32 µM (inactive)
GI50 (HT-29): > 100 µM (inactive)
GI50 (Malme-3M): 49.8 µM (inactive)
GI50 (SN12C): > 100 µM (inactive)
GI50 (SF-539): 24.9 µM (inactive)
GI50 (SK-MEL-28): > 100 µM (inactive)
GI50 (TK-10): 23.5 µM (inactive)
GI50 (SF-268): 24 µM (inactive)
GI50 (CAKI-1): > 100 µM (inactive)
GI50 (K562): > 100 µM (inactive)
GI50 (A549): 64.1 µM (inactive)
GI50 (NCI-H460): 81.3 µM (inactive)
